Laboratory results reported in paper PMC6652260 (Endocrine Connections, 2019).

How the values were obtained:
[1] = molecular target: T1, human placental HSD11B2 (Homo sapiens, UniProt P80365); assay: Human placental microsomal HSD11B2 activity assay; assay type: biochemical
T1 sequence (P80365 1-405): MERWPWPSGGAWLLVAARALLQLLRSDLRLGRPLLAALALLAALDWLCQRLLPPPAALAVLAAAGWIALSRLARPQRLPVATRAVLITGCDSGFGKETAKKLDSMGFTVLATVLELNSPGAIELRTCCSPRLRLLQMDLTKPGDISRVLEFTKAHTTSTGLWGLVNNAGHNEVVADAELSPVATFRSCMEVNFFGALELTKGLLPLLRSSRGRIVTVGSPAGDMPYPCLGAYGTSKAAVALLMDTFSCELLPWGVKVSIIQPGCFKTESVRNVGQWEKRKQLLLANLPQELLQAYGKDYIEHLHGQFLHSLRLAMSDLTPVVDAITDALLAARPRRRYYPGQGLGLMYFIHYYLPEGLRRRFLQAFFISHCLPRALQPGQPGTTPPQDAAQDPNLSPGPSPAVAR

[2] = system: human trophoblast cell lines BeWo and HTR-8; conditions: DES at pM, BeWo and HTR-8 cells; cited from earlier work
[3] = system: cultured trophoblast cells; conditions: cited from earlier work

| IC50 [1] [µM] | Mode of action versus cofactor NAD+ (Lineweaver–Burk), human HSD11B2 ([1]; cofactor NAD+ varied, human placental microsomes) | Mode of action versus steroid substrate (Lineweaver–Burk), human HSD11B2 ([1]; cortisol as the substrate, human placental microsomes) | inhibition at 100 µM ([1]; read-out: Inhibition of human placental HSD11B2 activity) [%] | SMILES | Effect on human β-chorionic gonadotropin (β-hCG) secretion [2] | Effect on secretion of human chorionic gonadotropin [3] |
| --- | --- | --- | --- | --- | --- | --- |
| 12.6 | uncompetitive inhibitor | competitive inhibitor | > 50 | CC/C(=C(/CC)c1ccc(O)cc1)c1ccc(O)cc1 [DES, Diethylstilbestrol] | can inhibit |  |
|  |  |  |  | CC1(C)[C@@H](OC(=O)CCC(=O)O)CC[C@]2(C)[C@H]3C(=O)C=C4[C@@H]5C[C@@](C)(C(=O)O)CC[C@]5(C)CC[C@@]4(C)[C@]3(C)CC[C@@H]12 [carbenoxolone] |  | stimulated secretion |
